Among the data in patent publication US10336765B2, “Dihydropyranopyrimidinone derivatives, and use thereof” (St Pharm Co., LTD, priority 2015, dated 2019) are IC50 values, retold here.

Molecules are shown by their SMILES.

The target of the first experiment is T1, tankyrase 1 (Homo sapiens, UniProt O95271).
T1 construct: purchased Trevigen 4700-096-K
T1 sequence (O95271 1-1327): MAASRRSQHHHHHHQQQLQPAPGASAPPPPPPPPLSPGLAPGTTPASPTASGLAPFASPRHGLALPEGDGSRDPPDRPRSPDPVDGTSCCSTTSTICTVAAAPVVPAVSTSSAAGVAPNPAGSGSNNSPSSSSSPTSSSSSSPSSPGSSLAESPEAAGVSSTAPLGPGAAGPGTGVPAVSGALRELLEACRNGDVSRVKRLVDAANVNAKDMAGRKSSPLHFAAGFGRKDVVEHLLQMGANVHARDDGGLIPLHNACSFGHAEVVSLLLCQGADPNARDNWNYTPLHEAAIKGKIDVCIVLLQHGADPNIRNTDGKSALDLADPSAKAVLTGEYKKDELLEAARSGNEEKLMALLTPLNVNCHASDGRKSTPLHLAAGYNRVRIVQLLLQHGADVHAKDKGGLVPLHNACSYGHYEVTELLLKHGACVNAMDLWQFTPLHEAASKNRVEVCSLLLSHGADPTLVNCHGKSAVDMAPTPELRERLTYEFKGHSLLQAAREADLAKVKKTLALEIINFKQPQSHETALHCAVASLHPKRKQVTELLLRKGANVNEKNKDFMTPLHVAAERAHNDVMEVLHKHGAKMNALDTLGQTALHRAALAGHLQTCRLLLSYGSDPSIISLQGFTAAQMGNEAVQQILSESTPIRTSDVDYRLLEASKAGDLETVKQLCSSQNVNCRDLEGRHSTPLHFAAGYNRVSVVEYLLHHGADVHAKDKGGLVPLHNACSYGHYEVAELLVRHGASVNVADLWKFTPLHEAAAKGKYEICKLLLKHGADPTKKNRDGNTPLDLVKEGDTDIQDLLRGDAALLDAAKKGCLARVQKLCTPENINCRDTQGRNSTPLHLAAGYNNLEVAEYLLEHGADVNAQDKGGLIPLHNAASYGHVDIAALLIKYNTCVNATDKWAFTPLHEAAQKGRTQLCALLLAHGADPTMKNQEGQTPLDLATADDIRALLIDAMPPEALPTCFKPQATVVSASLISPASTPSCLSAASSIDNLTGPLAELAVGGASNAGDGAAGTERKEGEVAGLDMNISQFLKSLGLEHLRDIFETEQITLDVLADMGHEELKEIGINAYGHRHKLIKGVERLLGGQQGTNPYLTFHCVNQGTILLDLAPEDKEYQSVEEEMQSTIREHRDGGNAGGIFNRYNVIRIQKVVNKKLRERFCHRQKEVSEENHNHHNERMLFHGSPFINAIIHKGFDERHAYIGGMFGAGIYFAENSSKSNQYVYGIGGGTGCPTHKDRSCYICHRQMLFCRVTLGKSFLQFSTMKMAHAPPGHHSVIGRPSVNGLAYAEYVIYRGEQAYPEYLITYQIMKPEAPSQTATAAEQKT
In words: Analysis of activity of tankyrase 1 (Trevigen kit, ELISA absorbance at 450 nm).
Details: not given
It is filed as biochemical. On the procedure:
Activities of novel compounds synthesized according to Examples 1 to 13 against tankyrase 1 were analyzed using a Trevigen kit (Cat. No. 4700-096-K). Poly PAR histone protein-coated 96-well plate, anti-PAR monoclonal antibody and goat anti-mouse IgG-HRP were used for measurement of absorbance by ELISA method. Specifically, 20×I-PAR assay buffer was diluted to 1× by adding water, and 50 μL of the diluted buffer was added to each well of the 96-well plate followed by reacting at rt for 30 min. Then, the supernatant was completely removed from each well and 10 μL of 1×I-PAR assay buffer and 15 μL of assay substrate were added to each well along with 1 μL of a 50× solution of inhibitors to be tested, which were the compounds obtained in the Examples 1 to 13. 10 mUnits/μL of tankyrase 1 enzyme was diluted 50-fold with 1×I-PAR assay buffer and 25 μL of the diluted enzyme was added to each well and reacted while stirring at rt for 30 min. One without any compound of the present invention was used as a positive control and another containing 1×I-PAR assay buffer with the same volume instead of tankyrase 1 enzyme was used as a negative control.
Upon completion of the reaction, 200 μL of PBSX, which was prepared by adding 0.1% triton X-100 to PBS, was added and removed and this washing process was repeated twice. Washing was repeated twice more using PBS in the same manner. 5× antibody diluent was diluted with distilled water to 1× concentration, 50 μL of the diluted goat anti-mouse IgG-HRP to 1/2000 was added to each well and reacted while stirring at rt for 30 min. Washes were carried out twice using PBSX and PBS, respectively. After adding 50 μL of TACS-sapphire to each well of the plate, the plate was blocked from light to react for 10 min to 15 min and the color of the reaction solution turned blue. To stop the reaction, 50 μL of 0.2N HCl was added to turn the solution yellow. Finally, the absorbance of the resulting solution was measured at 450 nm.
One may read the IC50 as the midpoint of a concentration-inhibition curve. With `COCCOc1cc(F)c(N2CCN(c3nc4c(c(=O)[nH]3)COCC4)CC2)c(F)c1` [Example 1, 2-(4-(2,6-difluoro-4-(2-methoxyethoxy)phenyl)piperazin-1-yl)-7,8-dihydro-3H-pyrano[4,3-d]pyrimidin-4(5H)-one], it took 27.2 nM to reach half-maximal inhibition (IC50).

Still in this experiment, the particulars now being: Trevigen kit Cat. No. 4700-096-K; reacted at rt for 30 min; absorbance at 450 nm; read-out: TNKS1 (IC50).
As for `O=c1[nH]c(N2CCN(c3c(F)cc(OCCN4CCCCC4)cc3F)CC2)nc2c1COCC2` [Example 3, 2-(4-(2,6-difluoro-4-(2-(piperidin-1-yl)ethoxy)phenyl)piperazin-1-yl)-7,8-dihydro-3H-pyrano[4,3-d]pyrimidin-4(5H)-one], the IC50 was 40.3 nM. In the case of `COCCOc1cc(F)c(C2(O)CCN(c3nc4c(c(=O)[nH]3)COCC4)CC2)c(F)c1` [Example 8, 2-(4-(2,6-difluoro-4-(2-methoxyethoxy)phenyl)-4-hydroxypiperidin-1-yl)-7,8-dihydro-3H-pyrano[4,3-d]pyrimidin-4(5H)-one], the IC50 amounted to 162 nM.

Regarding `CN1CCN(Cc2cc(F)c(N3CCN(c4nc5c(c(=O)[nH]4)COCC5)CC3)c(F)c2)CC1` [Example 6, 2-(4-(2,6-difluoro-4-((4-methylpiperazin-1-yl)methyl)phenyl)piperazin-1-yl)-7,8-dihydro-3H-pyrano[4,3-d]pyrimidin-4(5H)-one], the IC50 was 36.8 nM. Same read-out and setting: the figure for `CC(O)c1cc(F)c(N2CCN(c3nc4c(c(=O)[nH]3)COCC4)CC2)c(F)c1` (stereo not shown) [Example 7, 2-(4-(2,6-difluoro-4-(1-hydroxyethyl)phenyl)piperazin-1-yl)-7,8-dihydro-3H-pyrano[4,3-d]pyrimidin-4(5H)-one] is 21.8 nM. As to `O=c1[nH]c(N2CCN(c3c(F)cc(OCC(O)CO)cc3F)CC2)nc2c1COCC2` (stereo not shown) [Example 5, 2-(4-(4-(2,3-dihydroxypropoxy)-2,6-difluorophenyl)piperazin-1-yl)-7,8-dihydro-3H-pyrano[4,3-d]pyrimidin-4(5H)-one], the IC50 was found to be 26.1 nM. The same measure, in the same setting: the figure for `CCN(CC)CCOc1cc(F)c(N2CCN(c3nc4c(c(=O)[nH]3)COCC4)CC2)c(F)c1` [Example 12, 2-(4-(4-(2-(diethylamino)ethoxy)-2,6-difluorophenyl)piperazin-1-yl)-7,8-dihydro-3H-pyrano[4,3-d]pyrimidin-4(5H)-one] is 33.6 nM; for `Cn1nnc(C2CCN(c3nc4c(c(=O)[nH]3)COCC4)CC2)n1` [Example 9, 2-(4-(2-methyl-2H-tetrazol-5-yl)piperidin-1-yl)-7,8-dihydro-3H-pyrano[4,3-d]pyrimidin-4(5H)-one] it is 803 nM; for `O=c1[nH]c(N2CCN(c3c(F)cc(OCCN4CCOCC4)cc3F)CC2)nc2c1COCC2` [Example 2, 2-(4-(2,6-difluoro-4-(2-morpholinoethoxy)phenyl)piperazin-1-yl)-7,8-dihydro-3H-pyrano[4,3-d]pyrimidin-4(5H)-one] it is 40.6 nM.

Consider `O=c1[nH]c(N2CCN(c3c(F)cc(OCCO)cc3F)CC2)nc2c1COCC2` [Example 4, 2-(4-(2,6-difluoro-4-(2-hydroxyethoxy)phenyl)piperazin-1-yl)-7,8-dihydro-3H-pyrano[4,3-d]pyrimidin-4(5H)-one], for which the IC50 worked out at 26.6 nM.

`COCCOc1cc(F)c(C2CCN(c3nc4c(c(=O)[nH]3)COCC4)CC2)c(F)c1` [Example 11, 2-(4-(2,6-difluoro-4-(2-methoxyethoxy)phenyl)piperidin-1-yl)-7,8-dihydro-3H-pyrano[4,3-d]pyrimidin-4(5H)-one]: the IC50 came to 74.4 nM. Turning to `O=c1[nH]c(N2CCN(c3c(F)cc(OCCn4ccnc4)cc3F)CC2)nc2c1COCC2` [Example 13, 2-(4-(4-(2-(1H-imidazol-1-yl)ethoxy)-2,6-difluorophenyl)piperazin-1-yl)-7,8-dihydro-3H-pyrano[4,3-d]pyrimidin-4(5H)-one], the IC50 came out at 25.4 nM.

As for `O=C(COc1cc(F)c(N2CCN(c3nc4c(c(=O)[nH]3)COCC4)CC2)c(F)c1)N1CCCCC1` [Example 10, 2-(4-(2,6-difluoro-4-(2-oxo-2-(piperidin-1-yl)ethoxy)phenyl)piperazin-1-yl)-7,8-dihydro-3H-pyrano[4,3-d]pyrimidin-4(5H)-one], the 50% inhibitory concentration (IC50) came to 34.2 nM.
